According to US20220324808A1, “Co-crystal of Compound I Dihydrochloride and Preparation Method and Use Thereof” (CRYSTAL PHARMACEUTICAL (SUZHOU) CO., LTD., priority 2020, published 2022):
Where two headings read alike, the source gives them in different places.

Assays:
[1] = heated to 75-100° C.; WO2014152270A1; cited from earlier work
[2] = Compressibility (manual tablet press, tensile strength); assay type: physicochemical; conditions: 10 KN
Method: A manual tablet press was used for compression. 60 mg of Form CSIII and prior art Form A were weighed and added into the dies of a φ6 mm round tooling, compressed at 10 KN manually, then stored at room temperature for 24 h until complete elastic recovery, diameter (D) and thickness (L) were tested with a caliper. Hardness (H) was tested with an intelligent tablet hardness tester. Tensile strength of the powder was calculated with the following formula: T=2H/πDL. Under a certain force, the greater the tensile strength, the better the compressibility.

[3] = Mechanical stability: manual grinding, XRPD before and after; assay type: physicochemical; conditions: ground manually for 5 minutes in mortar
Method: Solid sample of prior art Form A, Form CSI and Form CSIII of the present disclosure were separately grounded manually for 5 minutes in mortars. The XRPD patterns overlay before and after grinding is shown in FIG. 14, FIG. 15 and FIG. 16.

[4] = Adhesiveness (material sticking to the punch); assay type: physicochemical; conditions: 30 mg, φ8 mm round tooling, 10 KN; for Maximum amount (mg) of material sticking to the punch: held 30 s
Method: 30 mg of Form CSI, Form CSIII and prior art Form A were weighed and then added into the dies of φ8 mm round tooling, compressed at 10 KN and held for 30 s. The punch was weighed and the amount of material sticking to the punch was calculated. The compression was repeated twice and the maximum amount of material sticking to the punch during the compression were recorded.

[5] = cited from earlier work; for crystalline form conversion at low humidity: under 5% RH
[6] = Crystalline form before and after formulation process (XRPD); assay type: physicochemical; conditions: dry granulation and tableting
Excerpt: The formulation and preparation process of Form CSI and Form CSIII are shown in Table 16 and Table 17, respectively.

[7] = Mechanical stability: tableting under different pressure, XRPD; assay type: physicochemical; conditions: 5 kN, 10 kN, 20 kN pressure
Excerpt: A certain amount of Form CSI and Form CSIII were compressed into tablets under 5 kN, 10 kN, 20 kN pressure with suitable tableting die. Crystalline form before and after tableting were checked by XRPD.

[8] = Storage stability of drug substance (crystalline form by XRPD, chemical impurity by HPLC); assay type: physicochemical
Excerpt: (§1) Crystalline form and chemical impurity were checked by XRPD and HPLC, respectively.
as §1

[9] = Humidity stability by DVS; assay type: physicochemical; conditions: humidity range 0-95% RH, XRPD before and after
Method: Dynamic Vapor Sorption (DVS) was measured via an SMS (Surface Measurement Systems Ltd.) intrinsic DVS instrument. Typical Parameters for DVS test are as follows:
Gas and flow rate: nitrogen, 200 mL/min
Rate of mass change: 0.002%/min
RH range: 0% RH to 95% RH
DVS was applied to test the stability of Form CSI under different humidity with about 10 mg of samples. The weight change at each relative humidity were recorded in a humidity range of 0-95% RH.
DVS was applied to test the stability of Form CSIII under different humidity with about 10 mg of samples. The weight change at each relative humidity were recorded in a humidity range of 0-95% RH.

[10] = 60 mg, φ6 mm round tooling, after 24 h
[11] = 25° C./60% RH (sealed), 6 Months
[12] = 40° C./75% RH (sealed), 6 Months
[13] = 60° C./75% RH (sealed), 1 Month

COC(=O)N1CCN(Cc2cccc(NC(=O)Nc3ccc(C)nc3)c2F)CC1.Cl.Cl.O [Form A]
crystalline form conversion on heating [1]: converts to Form B | Diameter (mm) [2, 10]: 6.00 mm | Hardness (kgf) [2, 10]: 3.38 kgf | Thickness (mm) [2, 10]: 1.67 mm | Tensile strength (MPa) ([2]; T=2H/πDL): 2.11 MPa | crystal form and crystallinity after grinding [3]: crystallinity of prior art Form A decreases after grinding | Maximum amount (mg) of material sticking to the punch [4]: 2.83 mg | weight loss ([5]; DVS, between about 30% RH and about 5% RH, WO2014152270A1): about 2.7 wt % | total weight gain ([5]; DVS, between about 40% RH and about 95% RH, WO2014152270A1): about 0.55 wt % | crystalline form conversion at low humidity [5]: converted to dehydrated state Form C | crystalline form conversion at low humidity ([5]; listed as prior art Form A): converted to Form C

COC(=O)N1CCN(Cc2cccc(NC(=O)Nc3ccc(C)nc3)c2F)CC1.COC(=O)N1CCN(Cc2cccc(NC(=O)Nc3ccc(C)nc3)c2F)CC1.Cl.Cl.Cl.Cl.O=C(O)/C=C/C(=O)O [Form CSI]
crystalline form before and after the formulation process [6]: remain stable before and after the formulation process | crystalline form after tableting [7]: no crystal transformation after tableting under different pressure | crystal form and crystallinity after grinding [3]: no crystal transformation and the crystallinity almost has no change after grinding | maximum amount relative to that of the prior art Form A [4]: less than ⅕ | Maximum amount (mg) of material sticking to the punch [4]: 0.48 mg | Purity (%) ([8]; 25° C./60% RH (open), 6 Months): 99.66% | Solid Form ([8]; 25° C./60% RH (open), 6 Months): Form CSI | Purity (%) [8, 11]: 99.65% | Solid Form [8, 11]: Form CSI | storage stability (in words) ([8]; 25° C./60% RH and 40° C./75% RH): stable for at least six months | Purity (%) ([8]; 40° C./75% RH (open), 6 Months): 99.65% | Solid Form ([8]; 40° C./75% RH (open), 6 Months): Form CSI | Purity (%) [8, 12]: 99.64% | Solid Form [8, 12]: Form CSI | storage stability (in words) ([8]; 60° C./75% RH): stable for at least one month | Purity (%) [8, 13]: 99.70% | Solid Form [8, 13]: Form CSI | Purity (%) ([8]; Initial): 99.71% | Solid Form ([8]; Initial): Form CSI | crystalline state after DVS test [9]: remains unchanged
